According to patent US9486472B2, “Methods for modulating neuronal responses” (UNIVERSITY OF BRITISH COLUMBIA CANADA, priority 2003, dated 2016):

How the values were obtained:
[1] = tested on: AMPA receptor (wild type GluR2); experiment: Colorimetric cell-ELISA receptor internalization assay, HEK293 cells expressing GluR2; type: cell-based, rat; conditions: insulin 0.5 μM, 10 min; approximately 25% without insulin
Text: Rat HA-tagged GluR1 and GluR2 receptor subunit cDNAs have been described previously^14. Constructs of HA-GluR2 carboxyl internal deletion or truncation mutants were made by standard PCR methods. The HA-GluR23Y-3A mutant was made using a Quick-Change Site Directed Mutagenesis Kit (Stratagene). HEK293 cells (ATCC) were transfected using the calcium phosphate precipitation method. Thirty six to forty eight hours after transfection, cells were washed with extracellular recording solution (ECS in mM: 140 NaCl, 33 glucose, 25 HEPES, 5.4 KCl, 1.3 CaCl2; pH 7.4, 320 mOsm) and incubated in ECS for at least one hour (serum starvation). […]
The ability of these mutants to undergo both constitutive and regulated endocytosis was assayed as described previously.^14 Surface receptors in live cells were pre-labelled with an anti-HA antibody (or an antibody against the extracellular N-terminal domain of GluR2 in the case of GluR2Δ854) at 4° C. […] Internalised receptors were then visualised by confocal microscopy and quantitated by colorimetric cell-ELISA-based receptor internalization assays (FIG. 6A). […] Transfected cells were pre-labeled with anti-HA antibody and then receptor endocytosis was evaluated under basal conditions (constitutive endocytosis) or following insulin stimulation (0.5 μM, 10 min; regulated endocytosis). […]

hippocampal neurons = experiment: NMDA- or STS-induced apoptosis in cultured hippocampal neurons (Cell Death ELISA, 11-dUTP, PI staining); type: cell-based, rat
Description: Hippocampi were rapidly removed from embryonic E l 8 Sprague Dawley rats and pooled prior to trituration. Hippocampal cell suspensions were plated onto poly-Dlysine coated culture dishes or glass coverslips and grown in Neurobasal™ media 10 (Invitrogen) for 14 days in vitro (DIV). The media from mature 14 DIV neurons was removed and replaced with 100 μM NMDA plus 10 μM glycine for 1 h at 37° C. prior to restoring neurons to the defined growth media. Twenty four hours after NMDA/glycine application, neurons were processed using cell death assays. NMDA-induced [Ca^2+]i responses were evoked and measured using methods described previously^26.
Apoptosis quantification: NMDA-induced apoptosis was quantified either using a Cell Death Detection Elisa Plus Kit (Roche Applied Sciences), which is based on the in vitro determination of cytoplasmic histone-associated DNA fragments, or using TdT mediated addition of biotinylated 11-dUTP to the free 3′-OH ends of DNA. Absorbance readings for both assays were carried out using a microplate reader.
Propidium Iodide (PI) staining of nuclei: After the induction of apoptosis, cells were fixed with 4% parafonnaldehyde/4% sucrose for 10 min followed by ice cold acetone for 1 min, and then stained with […] PI in Dulbecco's PBS for 30 min. Stained coverslips were mounted onto glass slides and viewed with a Leica fluorescence microscope to identify condensed nuclei. Cells with condensed nuclei were counted as apoptotic and the percentage of apoptotic cells to the total number of cells was calculated to give a semi-quantitative analysis, expressed as percentage of apoptosis.
A short peptide (YKEGYNVYGIE (SEQ ID NO. 2)) corresponding to amino acid residues from 869 to 879 of the C-terminus of GluR2 (R2-CT) was synthesized and incubated with a carrier protein (Pep-1)23 at a ratio of 1:20 in Dulbecco's modified Eagle's medium
(§1) (DMEM, Gibco) at 37° C. in a humidified atmosphere containing 5% CO2 for 30 min to allow the formation of R2-CT/Pep-1 complex. Hippocampal neurons (DW 12-14) were then overlaid with the preformed complex to reach a final R2-CT concentration of 1 μM and further incubated for 1 h before experiments commenced. Receptor Trafficking Assays

AMPA receptor [2] = experiment: Cell-ELISA of cell-surface AMPA receptors after NMDA treatment, hippocampal neurons; type: cell-based, rat; conditions: 100 μM NMDA + 10 μM glycine 1 h; R2-CT delivered with Pep-1 one hour prior to and during NMDA
Description: as §1
Cell ELISA assay: Quantification of cell-surface AMPA or NMDA receptors was performed by a colorimetric cell-ELISA assay essentially as described previously^14. Briefly, hippocampal neurons were treated with 100 μM NMDA plus 10 μM glycine for 1 h and then fixed with 4% paraformaldehyde/4% sucrose in PBS for 10 min. Half of the cells in each treatment condition were then permeabilized with 0.1% Triton-X 100 for 5 min. Receptors on the plasma membrane surface and the total cellular pool were then determined by incubating the cells with monoclonal antibodies against the extracellular domains of GluR2 or NR1 (Chemicon, 1 μg/ml) overnight at 4° C., followed by incubation with HRP-conjugated anti-mouse IgG secondary antibody (1:1000, Amersham Life Sciences) for 1 h at room temperature. Following extensive washing with PBS, cells were incubated with OPD substrate (Sigma) for approximately 10 min. Reactions were stopped with 0.2 volumes of 3N HCl, and absorbance at 492 nm was read using a spectrophotometric microplate reader.

AMPA receptor [3] = experiment: OGD-induced decrease of cell-surface AMPA receptors (Cell-ELISA), cultured cortical neurons; type: cell-based; conditions: GluR2CT peptide (1 mM) with PEP-1, one hour before OGD
Description: (§2) Ischemia-like insult was mimicked by oxygen and glucose deprivation (OGD) for one hour in cultured cortical neurons (DIV 12-14). OGD is a well-characterized cell culture model of ischemia. GluR2CT peptide (1 mM) was delivered into neurons by mixing it with the carrier peptide PEP-1 and incubating neurons with the mixture for one hour before OGD challenge. […] (n=6; *: P<0.05, Student's test, compared with Control).

[4] = tested on: cultured cortical neurons; experiment: OGD-induced neuronal apoptosis (Cell Death Detection ELISAplus), GluR2-CT with PEP-1; type: cell-based; conditions: GluR2CT peptide (1 mM) with PEP-1, one hour before OGD; 24 hr after OGD
Description: as §2

pp60 c-Src = pp60 c-Src (Homo sapiens, UniProt P12931); experiment: In vitro kinase assay with active recombinant Src; type: biochemical; conditions: GST fusion protein as substrate
Text: FIGS. 7 A-D. Insulin increases phosphorylation of tyrosine residues within the GluR2 carboxyl terminal (CT) region. A. In vitro tyrosine phosphorylation of the GluR2 CT. GST fusion proteins of the GluR1 CT (GST-GluR1CT), the GluR2 CT (GST-GluR2CT), residues 869-876 (YKEGYNVYG (SEQ ID NO. 4)) of the GluR2 CT (GST-GluR23Y), which contains a cluster of three tyrosine residues (Y869, Y873, and Y876) and the same amino acid stretch of the GluR2 CT with its tyrosine residues replaced by alanines (GST-GluR23A), along with the GST back bone (GST) as control, were incubated in the absence (−) or presence (+) of active recombinant pp60 c-Src. Phosphorylation products were immunoblotted using an anti-phosphotyrosine antibody (top panel). […] B. Expression levels of HA-GluR2 and HA-GluR23Y-3A (where tyrosines 869, 873 and 876 were mutated to alanines) 48 h after transient transfection into HEK293 cells were determined by a cell ELISA assay using permeabilized cells. C. HEK293 cells transiently transfected with HA-GluR1, HA-GluR2 or HA-GluR23Y-3A, along with empty vector (mock transfection) as control. Forty-eight hours later, the cells were treated with or without 0.5 μM insulin for 10 min. The lysates were then subjected to immunoprecipitation with an anti-HA antibody under denaturing conditions and immunoblotting with an anti-phosphotyrosine antibody (Top blot; IB: PY). […]

[5] = tested on: CA1 neurons in hippocampal slices; experiment: Insulin-induced depression of AMPA receptor-mediated EPSCs, whole-cell recording of CA1 neurons; type: cell-based, rat; conditions: 100 μg/ml in recording pipette; insulin 0.5 μM in bath
Description: GST-GluR23Y and GST-GluR23A were constructed by subcloning corresponding PCR fragments into pGEX 4T-1 vectors. GST fusion proteins were expressed in DH5α E. coli and purified from bacterial lysates according to the manufacturer's protocol (Pharmacia). Products were dialyzed in PBS and concentrated using Microcon-10 columns (Amicon) for intracellular application during whole-cell recordings.
Hippocampal slices (400 μm thickness) were prepared from Sprague-Dawley rats aged 16-26 postnatal days and perfused at room temperature with artificial cerebrospinal fluid containing (mM): 126 NaCl, 26 NaHCO3, 10 glucose, 3 KCl, 1.2 KH2PO4, 1 MgCl2, and 1 CaCl2, saturated with 95% O2/5% CO2^14. The recording pipettes (4-5 MO) were filled with solution containing (mM): 135 CsCl, 10 HEPES, 5 QX-314, 4 Mg-ATP, 2 MgCl2, 0.5 EGTA, 0.2 GTP and 0.1 CaCl2, pH 7.4, 310 mOsm. Whole-cell recording of CA1 neurons and the induction of LFS-LTD were performed as previously described.^14 […]

[6] = tested on: CA1 neurons in hippocampal slices; experiment: LFS-induced hippocampal CA1 long-term depression (LTD); type: cell-based, rat; conditions: postsynaptic application, 100 μg/ml; 1 Hz for 15 min
Description: Hippocampal slices (400 μm thickness) were prepared from Sprague-Dawley rats aged 16-26 postnatal days and perfused at room temperature with artificial cerebrospinal fluid containing (mM): 126 NaCl, 26 NaHCO3, 10 glucose, 3 KCl, 1.2 KH2PO4, 1 MgCl2, and 1 CaCl2, saturated with 95% O2/5% CO2^14. The recording pipettes (4-5 MO) were filled with solution containing (mM): 135 CsCl, 10 HEPES, 5 QX-314, 4 Mg-ATP, 2 MgCl2, 0.5 EGTA, 0.2 GTP and 0.1 CaCl2, pH 7.4, 310 mOsm. Whole-cell recording of CA1 neurons and the induction of LFS-LTD were performed as previously described.^14
The level of GluR2 tyrosine phosphorylation was assayed following low-frequency stimulation (LFS) of hippocampal slices (1 Hz for 15 min, which reliably induces LTD under our experimental conditions), to determine whether tyrosine phosphorylation of GluR2 CT may be required for LFS-induced long term depression (LTD). Slices were homogenized in denaturing buffer 10 min after the stimulation and GluR subunits were immunoprecipitated and probed for phosphotyrosine. […] Induction of LTD by LFS was blocked by postsynaptic application of GST-GluR23Y (100 μg/ml), but not by the mutant peptide GST-GluR23A (100 μg/ml; FIG. 10B) or by GST-GluR2834-843 (FIG. 10C).

## insulin: human recombinant insulin (Sigma)
[1]
  cell-surface receptors endocytosed within 30 min: 48%

## YKEGYNVYGIE [R2-CT, short peptide corresponding to amino acid residues 869 to 879 of the C-terminus of GluR2]
Hippocampal neurons; R2-CT alone or Pep-1 alone
  NMDA-induced apoptosis, peptide or carrier alone: neither R2-CT nor Pep-1 alone had any detectable effect
Hippocampal neurons; staurosporine 100 nM, 1 h
  STS-induced neuronal apoptosis: did not alter STS-induced neuronal apoptosis
AMPA receptor [2]
  NMDA-induced reduction of cell-surface AMPA receptors: prevented
AMPA receptor [3]
  OGD-induced decrease in cell-surface AMPA receptor expression: reduced the OGD-induced decrease in cell-surface AMPA receptor expression
[4]
  OGD-induced neuronal death: largely prevented

## GSTYKEGYNVYG [GST-GluR23Y, GST fusion protein of the nine amino-acid GluR2 CT stretch with three tyrosines]
pp60 c-Src
  tyrosine phosphorylation by recombinant Src kinase: phosphorylated
[5]
  insulin-induced EPSC depression: prevented
[6]
  induction of LTD by LFS: blocked
